Where no end group is shown, it is not given here.

One test has as its system PCSK9.
Experiment: not given
The format is binding, human. The note with it: spot phage ELISA signal-to-noise on PCSK9. In general terms: ELISA stands for enzyme-linked immunosorbent assay.
“GPTQSAFGPCGGIGYSGPTVCASGTTCQVLSPDVSQCLPGAS (disulfide (positions not given here)) [PCSK9 CBD 5]” had a S/N of 2.6.
Same read-out and setting: in the case of “GCGSHFAPWFGCKQDSDCLSWLCLYAADGLW (disulfide (positions not given here)) [PCSK9 EET I-II 5]” it was 18.1.
The same measure, in the same setting: then “GPTQSKYGMCGGIGYSGPTVCASGTTCQVLDPYTSQCLPGAS (disulfide (positions not given here)) [PCSK9 CBD 14]”, with 8.8.

A further test has as its system CD16A. Description: Spot phage ELISA, CD16A. The format is binding, human. The following applies: spot phage ELISA signal-to-noise on CD16A.
For “GPTQSEGGSCGGIGYSGPTVCASGTTCQVLNPYMSACLPGAS (disulfide (positions not given here)) [CD16A CBD 7]”, the S/N is 14.8.
As to “GCRGIDWWPCKQDSDCLTGCVCGPNGFCG (disulfide (positions not given here)) [CD16A EETI-II 24]”, the S/N turned out to be 11.1.
On to “GCIETIDHCKQDSDCLAGCVCQPMRRCG (disulfide (positions not given here)) [CD16A EETI-II 13]”, for which the S/N turned out to be 20.1.
The same measure, in the same setting: then “GCPWWWVVSCKQDSDCLAGCVCYLQENCG (disulfide (positions not given here)) [CD16A EETI-II 43]”, with 16.5; and “GCWGPWGPEHCKQDSDCLAGCVCGPNGFCG (disulfide (positions not given here)) [CD16A EETI-II 26]”, with 18.3; and “GCVETYVDCKQDSDCLAGCVCEPVQYCG (disulfide (positions not given here)) [CD16A EETI-II 12]”, with 18.5.
For the sequence “GPTQSPEGSCGGIGYSGPTVCASGTTCQVLNPYLSLCLPGAS (disulfide (positions not given here)) [CD16A CBD 8]”, the S/N stood at 14.2.
Sequence “GCGSKNGMNMCKQDSDCLAGCVCDPWGQCD (disulfide (positions not given here)) [CD16A EETI-II 31]” registered a S/N of 15.5.
Same read-out and setting: then “GPTQSHGGSCGGIGYSGPTVCASGTTCQVLNPYLSLCLPGAS (disulfide (positions not given here)) [CD16A CBD 3]”, with 17.5; and “GCIATVDHCKQDSDCLAGCVCEPFHVCG (disulfide (positions not given here)) [CD16A EETI-II 4]”, with 20.2; and “GCDEILHKCKQDSDCLAGCVCDEQQLCG (disulfide (positions not given here)) [CD16A EETI-II 10]”, with 17.2.
The same measure, in the same setting: in the case of “GCQWDPWGVQMNCKQDSDCLAGCVCGPNGFC (disulfide (positions not given here)) [CD16A EETI-II 34]” it was 19.6.
Consider “GPTQSPXGSCGGIGYSGPTVCASGTTCQVLNPYLSQCLPGAS (disulfide) [CD16A CBD 4]”, for which the S/N is on record as 16.8.
Same read-out and setting: in the case of “GCDSLLQRCKQDSDCLAGCVCTEEHLCG (disulfide (positions not given here)) [CD16A EETI-II 11]” it was 16.8.
The same measure, in the same setting: in the case of “GPTQSHYGQCGGLGYFGQWFCSGTTCQMMSPYGSQCLPGAST (disulfide (positions not given here)) [CD16A CBD 9]” it was 8.3; in that of “GPTQSWDGQCGGIGYSGPTVCASGTTCQVLSPYLSYCLPGAS (disulfide (positions not given here)) [CD16A CBD 6]”, 15.7; in that of “GCDAKLQQCKQDSDCLAGCVCEEAVICG (disulfide (positions not given here)) [CD16A EETI-II 2]”, 22.9.
The same measure, in the same setting: in the case of “GCWGFPFPMDCKQDSDCLAGCVCFLWDKCG (disulfide (positions not given here)) [CD16A EETI-II 23]” it was 19.5; in that of “GCEWMAIPCKQDSDCLAGCVCWESPYCG (disulfide (positions not given here)) [CD16A EETI-II 40]”, 20.1.
“GCDYKLWRCKQDSDCLAGCVCEESQVCG (disulfide (positions not given here)) [CD16A EETI-II 8]”: the S/N was 18.2.
The same measure, in the same setting: then “GCDYKLWRCKQDSDCLAGCVCEESQVCG (disulfide (positions not given here)) [CD16A EETI-II 3]”, with 21.6; and “GCADTPWQGRCKQDSDCLAGCVCGPNGFCG (disulfide (positions not given here)) [CD16A EETI-II 21]”, with 25.5.
As for “GCQWQVEECKQDSDCLAGCVCWHSPYCG (disulfide (positions not given here)) [CD16A EETI-II 41]”, the S/N is recorded as 18.8.
As to “GCPRILMRCKQDPDCLAGCVCDEEQLCG (disulfide (positions not given here)) [CD16A EETI-II 1]”, the S/N is 25.4.
The same measure, in the same setting: then “GPTQSMGGSCGGIGYSGPTVCASGTTCQVLDPYISMCLPGAS (disulfide (positions not given here)) [CD16A CBD 5]”, with 16.5; and “GCADTPWKGKCKQDSDCLAGCVCGPNGFCG (disulfide (positions not given here)) [CD16A EETI-II 20]”, with 15.6; and “GPTQSVWGSCGGIGYSGPTVCASGTTCQVLNPYMSACLPGAS (disulfide (positions not given here)) [CD16A CBD 1]”, with 21.0.
On the same count and under the same terms, in the case of “GCDMPSWDNVWPCKQDSDCLAGCVCGPNGFC (disulfide (positions not given here)) [CD16A EETI-II 28]” it was 19.8; in that of “GCGQAAVPCKQDSDCLAGCVCDPWGWCD (disulfide (positions not given here)) [CD16A EETI-II 29]”, 23.7; in that of “GCPWWWVVSCKQDSDCLAGCVCYLQENCG (disulfide (positions not given here)) [CD16A EETI-II 14]”, 17.8.
On to “GCQWIQVNCKQDSDCLAGCVCWVSPYCG (disulfide (positions not given here)) [CD16A EETI-II 37]”, for which the S/N came to 5.8.
“GCAVDPWGKQMTCKQDSDCLAGCVCGPNGFC (disulfide (positions not given here)) [CD16A EETI-II 33]” came in with a S/N of 19.5.
The same measure, in the same setting: then “GCDDILRACKQDSDCLAGCVCEEETLCG (disulfide (positions not given here)) [CD16A EETI-II 6]”, with 19.9; and “GCQYIETECKQDSDCLAGCVCWVSPWCG (disulfide (positions not given here)) [CD16A EETI-II 44]”, with 20.5; and “GCDDILRACKQDSDCLAGCVCEEETLCG (disulfide (positions not given here)) [CD16A EETI-II 9]”, with 17.8.
Sequence “GPTQSEGGQCGGIGYSGPTVCASGTTCQVLGPSWSFCLPGAS (disulfide (positions not given here)) [CD16A CBD 11]” displayed a S/N of 4.9.
The same measure, in the same setting: in the case of “GCDDPWGMAMPCKQDSDCLAGCVCGPNGFCG (disulfide (positions not given here)) [CD16A EETI-II 17]” it was 23.4.
The same measure, in the same setting: then “GCDWLEVECKQDSDCLAGCVCLISPYCG (disulfide (positions not given here)) [CD16A EETI-II 39]”, with 16.3.
Same read-out and setting: then “GCQWIQQPCKQDSDCLAGCVCHESPWCG (disulfide (positions not given here)) [CD16A EETI-II 38]”, with 17.4.
In turn, “GCSGNAMNCKQDSDCLAGCVCDPWGKCD (disulfide (positions not given here)) [CD16A EETI-II 25]” gave a S/N of 19.7.
The same measure, in the same setting: in the case of “GCQWVQMTCKQDSDCLAGCVCWHSPWCG (disulfide (positions not given here)) [CD16A EETI-II 42]” it was 17.3; in that of “GCDDPWGGEMCKQDSDCLAGCVCGPNGFCG (disulfide (positions not given here)) [CD16A EETI-II 16]”, 23.6.
In turn, “GPTQSEGGSCGGIGYSGPTVCASGTTCQVLGPYISLCLPGAS (disulfide (positions not given here)) [CD16A CBD 2]” yielded a S/N of 18.5.
“GCQFMKTECKQDSDCLAGCVCYESPWCG (disulfide (positions not given here)) [CD16A EETI-II 22]” had a S/N of 19.0.
Take “GCDAILWTCKQDSDCLAGCVCSEEDLCG (disulfide (positions not given here)) [CD16A EETI-II 7]”: the S/N was 18.7.
Still for that read-out and setting: then “GCQDPWGEAMQCKQDSDCLAGCVCGPNGFCG (disulfide (positions not given here)) [CD16A EETI-II 15]”, with 25.7; and “GCPRILMRCKQDSDCLAGYVCDPWGVCD (disulfide (positions not given here)) [CD16A EETI-II 30]”, with 23.2.
Consider “GPTQSEGGQCGGIGYSGPTVCASGTTCQVLGPMWSFCLPGAS (disulfide (positions not given here)) [CD16A CBD 10]”, for which the S/N was determined as 5.9.
The same measure, in the same setting: then “GCQWAQLSWDHCKQDSDCLAGCVCWQSPYCG (disulfide (positions not given here)) [CD16A EETI-II 35]”, with 16.7.
With “GCQWHEMTCKQDSDCLAGCVCWESPWCG (disulfide (positions not given here)) [CD16A EETI-II 36]”, the S/N is 15.9.
Same read-out and setting: in the case of “GCMDTPWKGACKQDSDCLAGCVCGPNGFCG (disulfide (positions not given here)) [CD16A EETI-II 19]” it was 18.2.
Still for that read-out and setting: then “GCDEMLYRCKQDSDCLAGCVCQEQDVCG (disulfide (positions not given here)) [CD16A EETI-II 5]”, with 20.0; and “GCAKDPWGQPMSCKQDSDCLAGCVCGPNGFC (disulfide (positions not given here)) [CD16A EETI-II 27]”, with 20.7.
Turning to “GCQVDPWGHQMDCKQDSDCLAGCVCGPNGFC (disulfide (positions not given here)) [CD16A EETI-II 32]”, the S/N is recorded as 22.9.
Same read-out and setting: then “GCWDPWGPMSCKQDSDCLAGCVCGPNGFCG (disulfide (positions not given here)) [CD16A EETI-II 18]”, with 12.9.

The record behind these values is publication PMC10977697 (PLOS ONE, 2024).
